# Measurements as given in patent publication US12344623B2, “Thiazolopyridine derivatives as adenosine receptor antagonists” (Merck Patent GmbH, priority 2019, dated 2025).
# Tests used:
# Assay type in all cases: cell-based
# mouse Pan T cells = test: mTcell assay, cAMP, agonist NECA; details: Mus musculus, T-cell
# Text: Adenosine (Ado) in tumor microenvironment can inhibit T cell activity by signaling through A2A receptors and suppress cytokine secretion by T cells. […] Potential A2A antagonists or A2A/A2B dual antagonists can rescue T cells from this inhibition. Herein, we describe the in vitro system we established using Pan T cells from mouse spleens to screen potential A2A antagonists or A2A/A2B dual antagonists for their activity. The method described involves the use of CD3/CD28 pre-coated beads to stimulate Pan T cells purified from mouse splenocytes, combined with the addition of A2A agonist along with potential A2A or A2A/A2B dual antagonists to evaluate potentiation of T cell cytokine production.
# Pan T-cells are isolated from black 6 mice by manual dissociation and purified using a Miltenyi Pan T-cell isolation kit. The isolated T-cells are activated in 96 well plates for 48 hours using anti-CD3/CD28 beads in T-cell proliferation media.
# After 48 hours, the T-cells are pooled, counted and suspended in serum free media containing 0.1% BSA. The cells are plated at 50,000 cells per well in 10 ul of media and incubated for 2 hours at 37° C. Test compounds are dispensed into the wells at a 10-point dose response, starting at a concentration of 10 uM. […] The plates are incubated for 30 minutes at 37° C. and assayed for cAMP levels using the Cisbio cAMP Dynamic2 reagent kit by adding 10 ul of the kit reagents to each well. The plates are incubated for 1 hour at room temperature and the HTRF signal is read on an Envision plate reader. The raw data is analyzed in Genedata Screener and the resulting data is loaded into the database.
# human A3 receptor = molecular target: T1, human A3 receptor (Homo sapiens, UniProt P0DMS8); test: Functional A3 receptor activity, recombinant CHO cells, cAMP (HTRF), forskolin, agonist IB-MECA; details: recombinant CHO cells, forskolin, agonist IB-MECA; read-out: Functional A3 receptor activity, CHO, cAMP, IC50
# T1 construct: expressed in transfected cells; host or cells: CHO
# T1 sequence (P0DMS8 1-318): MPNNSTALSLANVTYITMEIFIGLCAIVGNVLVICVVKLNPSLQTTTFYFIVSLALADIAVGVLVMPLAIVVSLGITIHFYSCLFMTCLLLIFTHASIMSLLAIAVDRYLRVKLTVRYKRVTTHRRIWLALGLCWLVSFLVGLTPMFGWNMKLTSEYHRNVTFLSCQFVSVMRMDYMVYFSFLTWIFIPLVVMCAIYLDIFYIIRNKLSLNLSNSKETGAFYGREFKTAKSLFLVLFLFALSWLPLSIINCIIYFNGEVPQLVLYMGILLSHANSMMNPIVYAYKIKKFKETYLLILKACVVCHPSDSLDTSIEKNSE
# How it was run: (§1)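 CHO cells (hA1 or hA3) + forskolin + test cpd + agonist (CPA/A1, IB-MECA/A3), 30 min; HTRF cAMP readout; normalized vs inhibitor and DMSO controls, curve fit.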
# human A2A receptor [1] = molecular target: T2, human A2A receptor (Homo sapiens, UniProt P29274); test: Human T cells, endogenous A2A receptor, cAMP, agonist NECA; details: read-out: hTcell data, cAMP, IC50
# Procedure: The endogenous functional activity of the Gs-coupled human A2A receptor was measured in T cells, where this receptor is highly expressed. Determination of receptor activity was done by quantification of cAMP, which is a second messenger for adenosine receptors.
# In short, human pan T cells were isolated from human PBMC (MACS Pan T Cell Isolation Kit, Miltenyi Biotec) that have been derived from fresh whole blood. The T cells were seeded in 384-well microtiter plates and treated with test compounds. […] Finally, HTRF reagents (cAMP Femto Kit, CisBio) were added to the wells, and after 1 h cellular cAMP levels were determined using the ENVISION (Perkin Elmer) plate reader.
# The obtained raw data were normalized against the inhibitor control and the neutral control (DMSO) and the normalized data were fitted using Genedata Screener software.
# human A1 receptor = molecular target: T3, human A1 receptor (Homo sapiens, UniProt P30542); test: Functional A1 receptor activity, recombinant CHO cells, cAMP (HTRF), forskolin, agonist CPA; details: recombinant CHO cells, forskolin, agonist CPA; read-out: Functional A1 receptor activity, CHO, cAMP, IC50
# T3 construct: expressed in transfected cells; host or cells: CHO
# T3 sequence (P30542 1-326): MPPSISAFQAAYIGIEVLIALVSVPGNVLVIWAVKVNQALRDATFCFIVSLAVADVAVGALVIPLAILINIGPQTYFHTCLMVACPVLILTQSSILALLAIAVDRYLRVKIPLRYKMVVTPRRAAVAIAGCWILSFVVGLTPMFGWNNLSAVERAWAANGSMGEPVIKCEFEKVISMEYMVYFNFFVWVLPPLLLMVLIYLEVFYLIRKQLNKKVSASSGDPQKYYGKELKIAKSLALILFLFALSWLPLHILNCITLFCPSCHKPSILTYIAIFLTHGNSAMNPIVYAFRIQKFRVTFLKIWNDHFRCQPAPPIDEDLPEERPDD
# How it was run: as §1
# human A2B receptor = molecular target: T4, human A2B receptor (Homo sapiens, UniProt P29275); test: Functional A2B receptor activity, recombinant HEK293 cells, cAMP (HTRF), agonist NECA; details: read-out: Functional A2B receptor activity, HEK293, cAMP, IC50
# T4 construct: expressed in transfected cells; host or cells: HEK293
# T4 sequence (P29275 1-332): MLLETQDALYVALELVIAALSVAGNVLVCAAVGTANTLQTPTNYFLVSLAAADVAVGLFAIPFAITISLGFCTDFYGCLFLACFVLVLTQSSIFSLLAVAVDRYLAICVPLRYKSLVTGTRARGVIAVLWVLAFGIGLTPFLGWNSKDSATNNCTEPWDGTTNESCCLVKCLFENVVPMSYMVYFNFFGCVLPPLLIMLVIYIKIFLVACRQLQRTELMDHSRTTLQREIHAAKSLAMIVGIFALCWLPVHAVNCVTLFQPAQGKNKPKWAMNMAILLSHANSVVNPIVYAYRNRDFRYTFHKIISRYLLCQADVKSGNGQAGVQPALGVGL
# How it was run: (§2)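 cAMP readout by HTRF after 30 min exposure of cells to forskolin, compound and agonist; data normalized vs inhibitor ctrl and DMSO (neutral) ctrl, then fitted.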
# human A2A receptor [2] = molecular target: T2, human A2A receptor; test: Functional A2A receptor activity, recombinant HEK293 cells, cAMP (HTRF), agonist NECA; parameters: expressed in transfected cells; host or cells: HEK293; details: read-out: Functional A2A receptor activity, HEK293, cAMP, IC50
# How it was run: as §2
# T2 sequence (P29274 whole entry): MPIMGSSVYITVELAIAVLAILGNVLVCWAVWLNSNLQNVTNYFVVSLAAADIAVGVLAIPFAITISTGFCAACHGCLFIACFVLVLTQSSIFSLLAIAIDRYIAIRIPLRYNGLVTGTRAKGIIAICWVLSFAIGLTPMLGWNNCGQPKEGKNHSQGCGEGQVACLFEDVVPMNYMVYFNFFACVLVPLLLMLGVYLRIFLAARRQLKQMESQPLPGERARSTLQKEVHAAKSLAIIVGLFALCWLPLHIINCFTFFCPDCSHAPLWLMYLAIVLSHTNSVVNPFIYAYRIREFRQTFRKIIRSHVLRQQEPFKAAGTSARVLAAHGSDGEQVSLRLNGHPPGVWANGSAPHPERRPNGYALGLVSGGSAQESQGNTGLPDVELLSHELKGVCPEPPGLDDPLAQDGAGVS
IC50 (mouse Pan T cells),IC50 (human A3 receptor),IC50 (human A2A receptor [1]),IC50 (human A1 receptor),IC50 (human A2B receptor),IC50 (human A2A receptor [2]),Structure (SMILES)
< 100 nM,> 1000 nM,< 10 nM,> 1000 nM,< 100 nM,< 10 nM,"COc1ncc(-c2ccccc2)c2sc(NC(=O)N3CC[C@H](CN)C3)nc12 [Compound 1, (R)-3-Aminomethyl-pyrrolidine-1-carboxylic acid (4-methoxy-7-phenyl-thiazolo[4,5-c]pyridin-2-yl)-amide]"
< 10 nM,> 1000 nM,< 10 nM,< 1000 nM,< 10 nM,< 10 nM,"COc1ncc(-c2ccccc2)c2sc(NC(=O)N3CCC(N4C(=O)CNC4=O)CC3)nc12 [Compound 137, 4-(2,5-Dioxo-imidazolidin-1-yl)-piperidine-1-carboxylic acid (4-methoxy-7-phenyl-thiazolo[4,5-c]pyridin-2-yl)-amide]"
< 10 nM,> 1000 nM,< 10 nM,> 1000 nM,< 100 nM,< 10 nM,"CNc1cccc(-c2cnc(OC)c3nc(NC(=O)N4CCC5(CCOCC5)C4)sc23)c1 [Compound 112, 8-Oxa-2-aza-spiro[4.5]decane-2-carboxylic acid [4-methoxy-7-(3-methylamino-phenyl)-thiazolo[4,5-c]pyridin-2-yl]-amide]"
< 100 nM,> 1000 nM,< 100 nM,> 1000 nM,< 10 nM,< 10 nM,"COc1ncc(-c2ccccc2)c2sc(NC(=O)N3CCC(N4C(=O)CCC4=O)CC3)nc12 [Compound 99, 4-(2,5-Dioxo-pyrrolidin-1-yl)-piperidine-1-carboxylic acid (4-methoxy-7-phenyl-thiazolo[4,5-c]pyridin-2-yl)-amide]"
< 10 nM,> 1000 nM,< 10 nM,> 1000 nM,< 10 nM,< 10 nM,"COc1nc(F)c(N2CCOCC2)c2sc(NC(=O)N3CCC4(CCCOC4)C3)nc12 (stereo not drawn) [Compound 7, 7-Oxa-2-aza-spiro[4.5]decane-2-carboxylic acid (6-fluoro-4-methoxy-7-morpholin-4-yl-thiazolo[4,5-c]pyridin-2-yl)-amide]"
< 10 nM,> 1000 nM,< 10 nM,> 1000 nM,< 100 nM,< 10 nM,"COc1ncc(C2=CCOCC2)c2sc(NC(=O)N3CCC4(CCCNC4)C3)nc12 (stereo not drawn) [Compound 102, 2,7-Diaza-spiro[4.5]decane-2-carboxylic acid [7-(3,6-dihydro-2H-pyran-4-yl)-4-methoxy-thiazolo[4,5-c]pyridin-2-yl]-amide]"
< 100 nM,> 1000 nM,< 10 nM,< 1000 nM,< 10 nM,< 10 nM,"COc1ncc(C2=CCOCC2)c2sc(NC(=O)N3CCC(N4C(=O)CNC4=O)CC3)nc12 [Compound 131, 4-(2,5-Dioxo-imidazolidin-1-yl)-piperidine-1-carboxylic acid [7-(3,6-dihydro-2H-pyran-4-yl)-4-methoxy-thiazolo[4,5-c]pyridin-2-yl]-amide]"
< 10 nM,> 1000 nM,< 10 nM,< 1000 nM,< 10 nM,< 10 nM,"COc1ncc(-c2ccccc2)c2sc(NC(=O)N3CC[C@@H](CN)C3)nc12 [Compound 3, (S)-3-Aminomethyl-pyrrolidine-1-carboxylic acid (4-methoxy-7-phenyl-thiazolo[4,5-c]pyridin-2-yl)-amide]"
< 10 nM,> 1000 nM,< 10 nM,> 1000 nM,< 100 nM,< 10 nM,"COc1nc(F)c(C2CCOCC2)c2sc(NC(=O)N3CCC4(CCCOC4)C3)nc12 (stereo not drawn) [Compound 31, 7-Oxa-2-aza-spiro[4.5]decane-2-carboxylic acid [6-fluoro-4-methoxy-7-(tetrahydro-pyran-4-yl)-thiazolo[4,5-c]pyridin-2-yl]-amide]"
< 100 nM,> 1000 nM,< 100 nM,> 1000 nM,< 10 nM,< 10 nM,"COc1ncc(-c2ccco2)c2sc(NC(=O)N3CCC4(CCOCC4)C3)nc12 [Compound 48, 8-Oxa-2-aza-spiro[4.5]decane-2-carboxylic acid (7-furan-2-yl-4-methoxy-thiazolo[4,5-c]pyridin-2-yl)-amide]"
< 100 nM,> 1000 nM,< 10 nM,> 1000 nM,< 100 nM,< 10 nM,"COc1ncc(C2=CCOCC2)c2sc(NC(=O)N3CCC4(CCNCC4)C3)nc12 [Compound 98, 2,8-Diaza-spiro[4.5]decane-2-carboxylic acid [7-(3,6-dihydro-2H-pyran-4-yl)-4-methoxy-thiazolo[4,5-c]pyridin-2-yl]-amide]"
< 10 nM,> 1000 nM,< 10 nM,< 1000 nM,< 10 nM,< 10 nM,"COc1nc(F)c(-c2ccccc2)c2sc(NC(=O)N3CC[C@@]4(CCCOC4)C3)nc12 [Compound 13, (5S)-N-{6-fluoro-4-methoxy-7-phenyl-[1,3]thiazolo[4,5-c]pyridin-2-yl}-7-oxa-2-azaspiro[4.5]decane-2-carboxamide]"
< 100 nM,> 1000 nM,< 10 nM,> 1000 nM,< 10 nM,< 10 nM,"COc1nc(F)c(C2CCOCC2)c2sc(NC(=O)c3ccc(C(=O)N(C)CCO)cc3)nc12 [Compound 50, N-[6-Fluoro-4-methoxy-7-(tetrahydro-pyran-4-yl)-thiazolo[4,5-c]pyridin-2-yl]-N′-(2-hydroxy-ethyl)-N′-methyl-terephthalamide]"
< 100 nM,> 1000 nM,< 10 nM,< 1000 nM,< 10 nM,< 10 nM,"COc1ncc(C2=CCOCC2)c2sc(NC(=O)N3CCC(N4C(=O)CCC4=O)CC3)nc12 [Compound 100, 4-(2,5-Dioxo-pyrrolidin-1-yl)-piperidine-1-carboxylic acid [7-(3,6-dihydro-2H-pyran-4-yl)-4-methoxy-thiazolo[4,5-c]pyridin-2-yl]-amide]"
